# Assay results reported in ChEMBL document CHEMBL5528074 (J Med Chem, 2024).
# What was measured:
# [1] = biological target: T1, G-protein coupled receptor 183 (Homo sapiens, UniProt P32249)
# Description: Antagonist activity at GPR183 (unknown origin) transfected in HEK293 cells incubated for 30 mins by Glosensor cAMP assay
# [2] = biological target: T1, G-protein coupled receptor 183; experiment: Antagonist activity at GPR183 (unknown origin) incubated for 30 mins by calcium mobilization assay; type: functional
# T1 sequence (P32249 whole entry): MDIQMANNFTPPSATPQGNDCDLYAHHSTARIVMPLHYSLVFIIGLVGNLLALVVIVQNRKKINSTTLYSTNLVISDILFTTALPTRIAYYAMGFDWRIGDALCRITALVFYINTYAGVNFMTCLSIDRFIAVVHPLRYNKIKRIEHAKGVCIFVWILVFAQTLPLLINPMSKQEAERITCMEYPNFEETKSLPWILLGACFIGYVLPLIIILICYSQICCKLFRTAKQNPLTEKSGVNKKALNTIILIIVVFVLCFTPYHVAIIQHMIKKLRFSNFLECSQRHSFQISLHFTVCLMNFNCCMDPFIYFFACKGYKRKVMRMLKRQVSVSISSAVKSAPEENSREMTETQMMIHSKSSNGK
SMILES,IC50 [1],IC50 [2]
O=C(/C=C/c1ccc(Br)cc1)N1CCN(C(=O)c2ccc3ncsc3c2)CC1,3.05 nM,–
Cc1c[nH]c2cc(C(=O)N3CCN(C(=O)/C=C/c4ccc(Br)cc4)CC3)ccc12,18.9 nM,–
COc1ccc(C(=O)N2CC3CCC2CN3C(=O)/C=C/c2ccc(Br)cc2)cc1 (stereo not drawn),> 10000 nM,–
O=C(/C=C/c1ccc(Br)cc1)N1CCN(C(=O)c2ccc3[nH]c(=O)[nH]c3c2)CC1,> 10000 nM,–
Cn1cnc2cc(C(=O)N3CCN(C(=O)/C=C/c4ccc(Br)cc4)CC3)ccc21,442 nM,–
COc1cc2c(cc1OC)CN(C(=O)NOCc1ccccc1)CC2,–,13.9 nM
COc1ccc(C(=O)NCC2(F)CCN(C(=O)/C=C/c3ccc(Br)cc3)CC2)cc1,66.2 nM,–
O=C(/C=C/c1ccc(Br)cc1)N1CCN(C(=O)c2ccc3nc(S)[nH]c3c2)CC1,> 10000 nM,–

# Next, values leading:
IC50 [1],IC50 [2],SMILES
54.9 nM,–,CN(C)c1nc2ccc(C(=O)N3CCN(C(=O)/C=C/c4ccc(Br)cc4)CC3)cc2s1
> 10000 nM,–,COc1ccc(C(=O)NCC2CCN(C(=O)/C=C/c3ccc(Br)cc3)CC2)cc1
76.9 nM,–,O=C(Nc1nc2ccc(C(=O)N3CCN(C(=O)/C=C/c4ccc(Br)cc4)CC3)cc2s1)C1CC1
8310 nM,–,Nc1nc2ccc(C(=O)N3CCN(C(=O)/C=C/c4ccc(F)cc4F)CC3)cc2s1
866 nM,–,Nc1nc2ccc(C(=O)N3CCN(C(=O)/C=C/c4ccc(F)cc4)CC3)cc2s1
18.9 nM,–,CC(=O)Nc1nc2ccc(C(=O)N3CCN(C(=O)/C=C/c4ccc(Br)cc4)CC3)cc2s1
386 nM,–,Nc1nc2ccc(C(=O)N3CCN(C(=O)/C=C/c4ccc5c(c4)CCO5)CC3)cc2s1
> 10000 nM,–,COc1ccc(C(=O)N2CC3CCC(C2)N3C(=O)/C=C/c2ccc(Br)cc2)cc1
1250 nM,–,Nc1nc2ccc(C(=O)N3CCN(C(=O)/C=C/c4ccc(F)c(F)c4)CC3)cc2s1
54.2 nM,–,COc1ccc(NC(=O)CC2CCN(C(=O)/C=C/c3ccc(Br)cc3)CC2(F)F)cc1 (stereo not drawn)
